Results published in patent publication US4649136A, “Cephem compounds” (Fujisawa Pharmaceutical Co., Ltd., priority 1981, dated 1987).
Converted amounts (≈) assume the structure as drawn.

What was measured:
in vivo = details: rat, po, 100 mg/kg
Protocol: Rats anesthetized with pentobarbital were fixed in supine position, and a polyethylene cannula was inserted into the bile duct. Bile samples were collected at 0 to 3, 3 to 6, and 6 to 24 hours after oral administration of 100 mg/kg of the test antibiotic. The antibiotic levels in the bile samples were bioassayed with the standard solution prepared with M/15 phosphate buffer (pH 7.0) and the biliary recovery in 24 hours were calculated.

Urinary excretion = assay type: in vivo; details: rat; rats; oral administration of 100 mg/kg; urine 0 to 6 and 6 to 24 hours; bioassay; read-out: Urinary recovery in 24 hours (%)
Protocol: Urine of rats was collected with a urine collector at 0 to 6, and 6 to 24 hours after oral administration of 100 mg/kg of the test antibiotic. The antibiotic levels in the urine samples were bioassayed with the standard solution prepared with M/15 phosphate buffer (pH 7.0) and the urinary recovery in 24 hours was calculated.

Klebsiella pneumoniae 7 = test: In vitro antibacterial activity, two-fold agar-plate dilution method (MIC); assay type: cell-based; details: HI-agar, 10^8 viable cells per ml, 37° C., 20 hours
Protocol: (§1) In vitro antibacterial activity was determined by the two-fold agar-plate dilution method as described below. One loopful of an overnight culture of each test strain in Trypticase-soy broth (10^8 viable cells per ml) was streaked on heart infusion agar (HI-agar) containing graded concentrations of representative test compound, and the minimal inhibitory concentration (MIC) was expressed in terms of μg/ml after incubation at 37° C. for 20 hours.

Proteus mirabilis 18 = test: as above; assay type: cell-based; details: HI-agar, 10^8 viable cells per ml, 37° C., 20 hours
Protocol: as §1

O=C(O)CO/N=C(\C(=O)NC1C(=O)N2C(C(=O)O)=CCSC12)c1cscn1 (stereo not drawn) [Compound .circle.A, 7-[2-Carboxymethoxyimino-2-(4-thiazolyl)acetamido]-3-cephem-4-carboxylic acid (syn isomer)]
dose excreted at 24 h (in vivo): 7.9%
dose excreted at 24 h (Urinary excretion): 43.5%
MIC (Klebsiella pneumoniae 7): 0.05 µg/mL (≈ 0.121 µM)
MIC (Proteus mirabilis 18): 0.05 µg/mL (≈ 0.121 µM)
